According to patent publication US4183931A, “2-Ketoalkyl-4(3H)-quinazolinones” (Research Corporation, priority 1977, dated 1980):
Like-named read-outs stand apart in the source and are kept apart here.

How the values were obtained:
[1] = Neuropharmacological Profile (NPP): general CNS observational screen (depression, righting reflex, ataxia)
[2] = NINCDS Maximal Electroshock Seizure Test (MES); format: in vivo, mice; conditions: for minimal effective dose: read-out: MES: dosage level that elicited protection
Procedure: 1. Neurological Activity Tests. […] Compounds were evaluated for anticonvulsant activity in two seizure models, the maximal electroshock seizure (MES) test and the subcutaneous pentylenetetrazol (Metrazol) seizure threshold (scMet) test.
The Maximal Electroshock Seizure Test was performed according to the method described by Swinyard and coworkers,* wherein a drop of 0.9% saline is instilled in each eye prior to application of corneal electrodes. Seizures are elicited with a 50 Hz alternating current of 50 mA (5 to 7 times that necessary to elicit minimal electroshock seizures) delivered for 0.2 sec via corneal electrodes. This stimulus will produce a maximal seizure in all normal mice. The maximal seizure typically consists of a short period of initial tonic flexion and a prolonged period of hind limb tonic extension, followed by terminal clonus. The seizure lasts about 22 seconds. Abolition of the hind limb tonic extensor component of the seizure is defined as protection and indicates anticonvulsant activity in the test compound.
The ability of a compound to prevent maximal electroshock seizures is believed to correlate with its ability to prevent the spread of seizure discharge through neural tissue. Activity against maximal electroshock seizures is thought to indicate potential efficacy in the treatment of major motor (grand mal) seizures. […] Selective action in the test is believed to indicate potential efficacy against absence (petit mal) seizures.
As described earlier, the MES, scMet and Rotorod tests were performed one-half hour and four hours after administration of each compound.
In the Secondary Evaluation, median effective doses (ED50) are determined in the MES, scMet and Rotorod assays using the procedures defined in Pharmacology, 95, 99-113 (1949).
Separate groups of animals are used for each time period. The times of peak toxic and anticonvulsant effect are taken from the resulting graph of percent of animals responding vs. time, and the determinations of median effective doses are performed at those times.

[3] = at 100 mg/kg, i.p., mice, score 0-8

Which “behavioral activity compared with methaqualone” value ([1]; NPP summary) does the source give for `O=C(Cc1nc2ccccc2c(=O)n1-c1ccccc1Cl)c1ccncc1` [IVd, 2-[2-Oxo-2-(4-pyridyl)ethyl]-3-o-chlorophenyl-4(3H)-quinazolinone] here?
The value was “approaches that of methaqualone”.

And the Depression ([1]; at 10 mg/kg, i.p., mice, score 0-8)?
The Depression was 2.

What about the “CNS Depression” value ([1]; at 30 mg/kg (value in parentheses), i.p., mice, score 0-8) of the same compound?
The value was 2.

And the Ataxia [1, 3]?
The Ataxia was 6.

What about the “CNS Depression” value [1, 3] of the same compound?
The value was 6.

And the Righting reflex [1, 3]?
Its Righting reflex is 8.

And the minimal effective dose ([2]; Mus musculus, ip, after 0.5 hr)?
The minimal effective dose was 300 mg/kg.

And the minimal effective dose ([2]; Mus musculus, ip, after 4 hr (value in parentheses))?
The minimal effective dose was 100 mg/kg.

And the ED50 ([2]; Mus musculus, ip, secondary evaluation, at time of peak effect)?
The ED50 was 33.5 mg/kg.

What about the “MES protective index compared with methaqualone” value ([2]; secondary evaluation) of the same compound?
Its value is “approximately four-fold higher”.

What about the “PI MES (Protective Index = TD50/ED50)” value ([2]; secondary evaluation) of the same compound?
Its value is 4.08.

And the “potency against electroshock-induced (MES) seizures compared with methaqualone” value ([2]; secondary evaluation)?
The value was “more potent”.

What about the “MES protective index compared with commercial agents” value ([2]; vs Ethotoin, Mephenytoin, Phenobarbital, Metharbital, Trimethadione, Paramethadione, Methsuximide, Phensuximide, Diazepam, Clonazepam) of the same compound?
The value was “higher MES protective index”.
